According to patent publication US8895277B2, “Legume isoprene synthase for production of isoprene” (Danisco US Inc., priority 2012, dated 2014):

Assays:
[1] = tested on: E. coli expressing P. alba variant 1 IspS; test: DMAPP toxicity relief: growth in presence of MVA; conditions: 15 to 75 mM MVA; FIG. 13
[2] = tested on: E. coli expressing P. alba variant 3 IspS; test: DMAPP toxicity relief: growth in presence of MVA; conditions: FIG. 13
[3] = tested on: E. coli expressing A. hypogaea IspS; test: DMAPP toxicity relief: growth in presence of MVA; conditions: FIG. 13
[4] = tested on: E. coli expressing P. alba variant 2 IspS
[5] = target: Populus alba isoprene synthase, P. alba variant 1 (Populus alba, UniProt Q50L36); assay type: biochemical; conditions: substrate DMAPP; 34° C.; Avg Value
[6] = target: Populus alba isoprene synthase, P. alba variant 2 (Populus alba, UniProt Q50L36); assay type: biochemical; conditions: substrate DMAPP; 34° C.; Avg Value
[7] = substrate: CC(C)=CCOP(=O)(O)OP(=O)(O)O; test: purified protein, by the assay type; conditions: other: substrate DMAPP, 34° C., Avg Value

With `C[C@@](O)(CCO)CC(=O)O` [MVA, mevalonic acid] the “Growth inhibition by MVA” value [1] was “growth was inhibited at any concentration of MVA tested”, the “MVA concentration at which growth was partially inhibited” value [2] was “at least 30 mM” and the “MVA concentration at which significant growth was seen” value [3] was 15 to 45 mM. The “MVA concentration at which growth was inhibited” value [4] was “higher than 15 mM”.

Molecule `CC(C)=CCOP(=O)(O)OP(=O)(O)O` [DMAPP, 3,3-dimethylallyl diphosphate] has a Km [5] of 2790 µM and a Km [6] of 2880 µM.

B1: Populus alba isoprene synthase (P. alba IspS), wild type (WT) (Populus alba) (protein)
chain: MEARRSANYEPNSWDYDYLLSSDTDESIEVYKDKAKKLEAEVRREINNEKAEFLTLLELIDNVQRLGLGYRFESDIRGALDRFVSSGGFDAVTKTSLHGTALSFRLLRQHGFEVSQEAFSGFKDQNGNFLENLKEDIKAILSLYEASFLALEGENILDEAKVFAISHLKELSEEKIGKELAEQVNHALELPLHRRTQRLEAVWSIEAYRKKEDANQVLLELAILDYNMIQSVYQRDLRETSRWWRRVGLATKLHFARDRLIESFYWAVGVAFEPQYSDCRNSVAKMFSFVTIIDDIYDVYGTLDELELFTDAVERWDVNAINDLPDYMKLCFLALYNTINEIAYDNLKDKGENILPYLTKAWADLCNAFLQEAKWLYNKSTPTFDDYFGNAWKSSSGPLQLVFAYFAVVQNIKKEEIENLQKYHDTISRPSHIFRLCNDLASASAEIARGETANSVSCYMRTKGISEELATESVMNLIDETWKKMNKEKLGGSLFAKPFVETAINLARQSHCTYHNGDAHTSPDELTRKRVLSVITEPILPFER
For B1, the Km [7] was 2830 µM.

B2: Arachis hypogaea isoprene synthase (A. hypogaea IspS), SEQ ID NO: 3 (Arachis hypogaea) (protein)
chain: MNTRRSANYQPNLWDFEFLQSVENDLQVERLEERARKLEEEVRGLMKKVEIEPLSLLELMDNVERLGLTYKFEEDIKSALNNRIVPLLHHHTINKYGLHATALSFRFLRQHAFHVSPDVFESFKEEGKFKKEISGDVLGLLNLYETSYLGFEGETILDEARAFSATHLKNLLQTNQVQNKVMAEKVRHALELPYHRRVHRLEARWFIERYEQKEAHDGALLELAKLDFNMVQSVMKKELQELSRWWREIGLTSKLDFVRDRLMEVYFWALGMAPHPQLTECRKAVTKMFGLVTIIDDVYDVYGTLDELQLFTDAVDRWDVNAVETLPDYMKLCYLALYNSVNDTAYSTLREKGDNSLPHLAKSWRDLCKAFLQEAKWSNNKIIPPFDAYIRNASVSSSGGALLAPCYFSVTQDSTSQAIDSITNYHGIVRSSCAIFRLCNDLATSAAELERGETTNSITSYMTENGTTEEEARESLGKLIDQEWKKMNRDVVLESAYPNVFKEIAINMARVSHCTYQYGDGLGRPDDTAENRIKLSLIEPIPIN
B2 gave a Km [7] of 18300 µM.
